One may read the IC50 as the concentration at which inhibition is half-maximal. A high value points to weaker potency in that assay.

The subject of test [1] is H3K27m3 methylation in Pfeiffer cells. The experiment in a line: Western Blot of H3K27m3 methylation in Pfeiffer cells. The format is cell-based. Conditions: for IC50: Homo sapiens, 72 hours treatment, H3K27m3 methylation by Western Blot; for effect compared with control compounds in Western Blot verification on cells: versus EPZ6438 and GSK126. The procedure:
Meanwhile, the inventors further conducted Western Blot with Pfeiffer cells (purchased from ATCC, USA) for verification. […] Effect of compounds on H3K27m3 methylation in cells was assessed.
For orientation: A western blot detects proteins with antibodies after separation by electrophoresis.

Test [2] concerns the target PRC2 protein complex comprising EZH2(Y641F) (Homo sapiens (Human), UniProt Q15910, Y641F). The experiment in a line: EZH2(Y641F) TR-FRET enzymatic activity assay. Conditions: for activity compared with control compounds in the assay using a TR-FRET kit: versus GSK126 and EPZ6438. On the technique in general: In TR-FRET formats the signal depends on donor and acceptor labels being close together.
Method: Subsequently 5 μL of the assay antibody, H3K27me3-Eu(K)Ab (purchased from cisbio bioassays, USA, #61 KC3KAE) and 5 μL Streptavidin-XL665 (purchased from cisbio bioassays, USA, #610SAXLA), were added and incubated for 1 hour at room temperature.

Another test deals with EZH2 (Homo sapiens (Human), UniProt Q15910). The experiment in a line: E-cadherin promoter luciferase reporter gene primary screening in 293T cells. Conditions: 293T cells treated for 24 hours, Dual-Glo luciferase. Type of test: cell-based. From the text: EZH2 suppresses the expression of downstream E-cadherin, and upon EZH2 suppression, expression of E-cadherin will increase. Based on such principle, a reporter gene expression vector was constructed using luciferase.
Sequence of EZH2 (Q15910 whole entry, the tested form may be a part): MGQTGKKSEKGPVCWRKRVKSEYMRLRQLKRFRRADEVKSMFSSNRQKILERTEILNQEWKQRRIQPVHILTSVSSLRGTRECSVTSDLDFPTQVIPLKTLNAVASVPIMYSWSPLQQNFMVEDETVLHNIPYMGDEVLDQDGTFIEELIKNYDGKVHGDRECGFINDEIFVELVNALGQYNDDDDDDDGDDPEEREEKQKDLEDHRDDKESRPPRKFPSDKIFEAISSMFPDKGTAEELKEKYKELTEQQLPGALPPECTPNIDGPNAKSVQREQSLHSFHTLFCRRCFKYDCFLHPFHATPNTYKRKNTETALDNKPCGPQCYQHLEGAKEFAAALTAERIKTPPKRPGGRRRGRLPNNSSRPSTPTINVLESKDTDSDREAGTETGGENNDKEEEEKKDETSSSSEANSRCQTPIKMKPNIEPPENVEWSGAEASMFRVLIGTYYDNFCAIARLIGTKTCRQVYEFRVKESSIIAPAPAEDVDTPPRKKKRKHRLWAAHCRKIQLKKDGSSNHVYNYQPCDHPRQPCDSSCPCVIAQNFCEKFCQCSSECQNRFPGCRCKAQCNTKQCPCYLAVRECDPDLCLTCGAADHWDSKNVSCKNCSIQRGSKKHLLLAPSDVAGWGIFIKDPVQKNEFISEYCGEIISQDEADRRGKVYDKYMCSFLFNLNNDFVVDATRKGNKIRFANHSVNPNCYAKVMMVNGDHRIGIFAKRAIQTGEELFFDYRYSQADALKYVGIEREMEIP
Sequence of EZH2 (O75530 whole entry partner, the tested form may be a part): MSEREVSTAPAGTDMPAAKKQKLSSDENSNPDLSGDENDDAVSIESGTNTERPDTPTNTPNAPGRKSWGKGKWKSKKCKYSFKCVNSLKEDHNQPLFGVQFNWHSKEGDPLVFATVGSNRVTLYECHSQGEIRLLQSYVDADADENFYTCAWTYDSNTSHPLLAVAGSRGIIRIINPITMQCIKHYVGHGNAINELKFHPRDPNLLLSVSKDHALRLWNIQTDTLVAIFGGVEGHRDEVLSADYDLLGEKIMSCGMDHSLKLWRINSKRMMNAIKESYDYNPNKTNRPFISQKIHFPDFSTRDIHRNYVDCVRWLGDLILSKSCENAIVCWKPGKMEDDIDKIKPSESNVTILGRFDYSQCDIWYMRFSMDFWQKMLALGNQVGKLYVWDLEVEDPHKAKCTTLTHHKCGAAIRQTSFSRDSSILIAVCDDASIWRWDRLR
Sequence of EZH2 (Q15022 whole entry partner, the tested form may be a part): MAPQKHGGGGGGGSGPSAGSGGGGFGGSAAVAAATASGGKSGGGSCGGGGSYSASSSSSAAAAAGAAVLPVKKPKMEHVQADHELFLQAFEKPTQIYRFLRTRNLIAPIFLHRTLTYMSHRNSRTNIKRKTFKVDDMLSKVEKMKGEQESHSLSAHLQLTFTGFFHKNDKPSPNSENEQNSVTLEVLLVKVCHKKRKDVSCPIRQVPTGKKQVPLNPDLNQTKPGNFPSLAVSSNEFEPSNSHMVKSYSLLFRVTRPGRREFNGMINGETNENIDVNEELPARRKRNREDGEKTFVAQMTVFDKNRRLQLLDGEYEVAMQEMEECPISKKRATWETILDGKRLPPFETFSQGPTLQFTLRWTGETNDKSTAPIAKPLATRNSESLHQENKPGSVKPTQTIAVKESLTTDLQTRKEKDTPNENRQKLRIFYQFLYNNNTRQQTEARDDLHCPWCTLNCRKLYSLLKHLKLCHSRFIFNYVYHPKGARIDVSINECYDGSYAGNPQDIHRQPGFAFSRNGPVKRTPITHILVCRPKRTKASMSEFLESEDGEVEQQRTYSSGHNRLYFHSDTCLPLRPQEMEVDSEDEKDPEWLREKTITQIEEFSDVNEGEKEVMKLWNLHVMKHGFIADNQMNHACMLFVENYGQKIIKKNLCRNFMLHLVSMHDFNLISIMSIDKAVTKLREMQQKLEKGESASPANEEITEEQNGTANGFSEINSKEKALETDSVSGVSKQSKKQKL
Sequence of EZH2 (Q09028 whole entry partner, the tested form may be a part): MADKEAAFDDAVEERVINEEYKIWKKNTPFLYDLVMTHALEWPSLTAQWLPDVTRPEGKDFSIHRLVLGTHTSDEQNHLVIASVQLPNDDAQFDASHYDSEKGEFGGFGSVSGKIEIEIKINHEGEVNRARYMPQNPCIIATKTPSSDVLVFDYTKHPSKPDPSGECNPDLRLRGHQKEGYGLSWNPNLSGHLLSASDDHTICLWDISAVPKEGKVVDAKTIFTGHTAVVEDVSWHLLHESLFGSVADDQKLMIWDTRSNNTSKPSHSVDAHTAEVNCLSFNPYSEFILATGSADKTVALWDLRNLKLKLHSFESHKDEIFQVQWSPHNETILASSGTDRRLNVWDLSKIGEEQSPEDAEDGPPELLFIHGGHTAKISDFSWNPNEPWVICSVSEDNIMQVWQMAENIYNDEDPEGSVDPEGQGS
The amplified fragments after PCR and the PGL4.1 vector (purchased from TAKARA, Japan) were respectively subjected to enzyme digestion with SacI and BglII (purchased from TAKARA, Japan), and then purified with PCR cleanup kit (Axygen PCR cleanup kit). Subsequently, the purified and enzyme-digested PCR products was ligated to the purified and enzyme-digested PGL4.1 vector using ligase solution I (DNA Ligation Kit Ver.2.1, purchased from TAKARA, Japan), and subjected to transformation. Single clones were then screened out and subjected to sequencing, and the obtained positive plasmid containing promoter fragments of Ecadherin was named E-cadherin RE-PGL4.1.
Meanwhile, a Renilla fluorescent vector was constructed using PCDNA4.1 (purchased from Thermofisher, USA) as the template to amplify the fragment of CMV promoter. After enzymatic digestion of the amplified CMV sequences and pGL4.70 vector (purchased from Promega, USA) with KpnI and XhoI (purchased from Promega, USA), purification was conducted with PCR cleanup kit (Axygen PCR cleanup kit). Then the enzyme-digested PCR product was ligated to the enzyme-digested PGL4.70 vector using ligase solution I (DNA Ligation Kit Ver.2.1, purchased from TAKARA, Japan) and the resultant was subjected to transformation. Subsequently single clones were screened and subjected to sequencing, and the obtained plasmid that contained CMV sequence was named as Plasmid Renilla luciferase-pGL4.70. Said plasmid utilized CMV promoter to achieve high expression of Renilla luciferase, which served as the control fluorescence for the primary screening system.
The cells were firstly added with 20 μL Dual-Glo® Luciferase Assay Reagent, then incubated under room temperature for 10 minutes, and read on microplate reader Spectramax i3 (Molecular Devices, USA) to obtain the data of primary screening, which is shown in Table 1.
(In general: A reporter such as luciferase makes a cellular process visible.)

Sequence of PRC2 protein complex comprising EZH2(Y641F) (Q15910 whole entry Y641F): as the sequence (Q15910 whole entry, the tested form may be a part) above, with Y641F counted along it
Sequence of PRC2 protein complex comprising EZH2(Y641F) (O75530 whole entry partner): as the sequence (O75530 whole entry partner, the tested form may be a part) above
Sequence of PRC2 protein complex comprising EZH2(Y641F) (Q15022 whole entry partner): as the sequence (Q15022 whole entry partner, the tested form may be a part) above
Sequence of PRC2 protein complex comprising EZH2(Y641F) (Q09028 whole entry partner): as the sequence (Q09028 whole entry partner, the tested form may be a part) above
Sequence of PRC2 protein complex comprising EZH2(Y641F) (Q6ZN18 whole entry partner): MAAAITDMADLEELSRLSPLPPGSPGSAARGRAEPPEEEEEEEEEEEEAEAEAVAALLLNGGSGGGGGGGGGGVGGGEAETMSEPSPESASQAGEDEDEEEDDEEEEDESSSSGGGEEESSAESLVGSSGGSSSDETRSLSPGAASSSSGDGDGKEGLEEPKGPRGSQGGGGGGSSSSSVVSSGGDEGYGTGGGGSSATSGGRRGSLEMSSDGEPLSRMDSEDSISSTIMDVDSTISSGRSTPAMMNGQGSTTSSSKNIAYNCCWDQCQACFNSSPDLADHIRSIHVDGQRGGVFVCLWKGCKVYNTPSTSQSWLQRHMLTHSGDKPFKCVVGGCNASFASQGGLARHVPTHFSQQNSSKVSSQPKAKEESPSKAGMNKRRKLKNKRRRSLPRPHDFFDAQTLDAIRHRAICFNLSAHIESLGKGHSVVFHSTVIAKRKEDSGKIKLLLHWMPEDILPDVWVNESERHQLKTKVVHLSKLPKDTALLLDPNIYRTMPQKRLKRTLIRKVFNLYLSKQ

Turning to `CCN(C(=O)C1CCCC1)c1cc(-c2ccc(CN3CCNCC3)cc2)cc(C(=O)NCc2c(C)cc(C)[nH]c2=O)c1C` [Compound 25, N-((4,6-dimethyl-2-oxo-1,2-dihydropyridin-3-yl)methyl)-5-(N-ethylcyclopentanecarboxamido)-4-methyl-4′-((4-piperazin-1-yl)methyl)-4-methyl-[1,1′-diphenyl]-3-carboxamide], in test [1], the IC50 was 0.063 µM. In test [2], half-maximal inhibition (IC50) required 58.6 nM; the “activity compared with control compounds in the assay using a TR-FRET kit” value (shortened to “activity compared with control compounds”) is “superior activity than control compounds GSK126 and EPZ6438”. Also, the “1 μM relative fluorescence intensity” value at EZH2 (compound 1 μM) stood at 116.28. For the same molecule, the “10 μM relative fluorescence intensity” value at EZH2 (compound 10 μM) was determined as 228.14.
For `CCN(C(=O)C1CC1)c1cc(-c2ccc(OCCCN3CCOCC3)cc2C)cc(C(=O)NCc2c(C)cc(C)[nH]c2=O)c1C` [Compound 64, N-((4,6-dimethyl-2-oxo-1,2-dihydropyridin-3-yl)methyl)-5-(N-ethylcyclopropanecarboxamido)-2′,4-dimethyl-4′-(3-morpholinopropoxy)-[1,1′-diphenyl]-3-carboxamide], in test [1], the IC50 was 0.03 µM; the “effect compared with control compounds in Western Blot verification on cells” value was “superior effects than control compounds EPZ6438 and GSK126”. Further, in test [2], the half-maximal inhibitory concentration (IC50) turned out to be 103 nM; the “activity compared with control compounds” value is “superior activity than control compounds GSK126 and EPZ6438”.
Take `CCN(C(=O)C1CC1)c1cc(-c2ccc(OCCCN3CCOCC3)c(F)c2)cc(C(=O)NCc2c(C)cc(C)[nH]c2=O)c1C` [Compound 65, N-((4,6-dimethyl-2-oxo-1,2-dihydropyridin-3-yl)methyl)-5-(N-ethylcyclopropanecarboxamido)-3′-fluoro-4-methyl-4′-(3-morpholinopropoxy)-[1,1′-diphenyl]-3-carboxamide]: in test [1], half-maximal inhibition (IC50) required 0.024 µM; the “effect compared with control compounds in Western Blot verification on cells” value was “superior effects than control compounds EPZ6438 and GSK126”. Besides, in test [2], inhibition was half-maximal at 29 nM (IC50); the “activity compared with control compounds” value was “superior activity than control compounds GSK126 and EPZ6438”.
Turning to `CCN(C(=O)C1CC1)c1cc(-c2cnc(N3CCN(CC4CC4)CC3)cc2C)cc(C(=O)NCc2c(C)cc(C)[nH]c2=O)c1C` [Compound 71, 5-(6-(4-(cyclopropylmethyl)piperazin-1-yl)-4-methylpyridin-3-yl)-N-((4,6-dimethyl-2-oxo-1,2-dihydropyridin-3-yl)methyl)-3-(N-ethylcyclopropanecarboxamido)-2-methylbenzamide], in test [1], the IC50 worked out at 0.041 µM. In test [2], the “activity compared with control compounds” value was “superior activity than control compounds GSK126 and EPZ6438”.
Take `CCN(C(=O)C1CC1)c1cc(-c2ccc(OCCN3CCOCC3)c(F)c2)cc(C(=O)NCc2c(C)cc(C)[nH]c2=O)c1C` [Compound 74, N-((4,6-dimethyl-2-oxo-1,2-dihydropyridin-3-yl)methyl)-5-(N-ethylcyclopropanecarboxamido)-3′-fluoro-4-methyl-4′-(2-morpholinoethoxyl)-[1,1′-diphenyl]-3-carboxamide]: the values for the IC50 in test [1] and in test [2] were 0.093 µM and 23 nM, respectively. Further, in test [2], the “activity compared with control compounds” value is “superior activity than control compounds GSK126 and EPZ6438”.
